Columns and labels:
[1] = molecular target: PI3K (p110α (E542K)/p85α) (Homo sapiens (Human), UniProt P42336, E542K); assay: Lipid kinase selectivity panel (Reaction Biology); assay type: biochemical; conditions: 1 μM compound, single dose duplicates, 10 μM ATP; read-out: Percent inhibition relative to DMSO control, PI3K (p110α (E542K)/p85α)
Description: (§1) The compounds of the present invention were tested in a standard lipid kinase selectivity panel: 16 other lipid kinases (Reaction Biology, Malvern, PA, USA), under conditions of non-disclosure, non-dissemination, and non-use. In brief, compounds (see Table 2) were tested at in single dose duplicates at 1 μM against lipid kinases, including PI3Kα, PI3Kβ, and PI3Kδ, and reactions were carried out at 10 μM ATP.

[2] = molecular target: PI3KC2α (Homo sapiens (Human), UniProt O00443); assay: Lipid kinase selectivity panel (Reaction Biology); assay type: biochemical; conditions: 1 μM compound, single dose duplicates, 10 μM ATP; read-out: Percent inhibition relative to DMSO control, PI3KC2α
Description: as §1

[3] = molecular target: PI3Kb (p110β/p85α) (Homo sapiens (Human), UniProt P42338); assay: Lipid kinase selectivity panel (Reaction Biology); assay type: biochemical; conditions: 1 μM compound, single dose duplicates, 10 μM ATP; read-out: Percent inhibition relative to DMSO control, PI3Kb (p110β/p85α)
Description: as §1

[4] = molecular target: PI3K (p110α (H1047R)/p85α) (Homo sapiens (Human), UniProt P42336, H1047R); assay: Lipid kinase selectivity panel (Reaction Biology); assay type: biochemical; conditions: 1 μM compound, single dose duplicates, 10 μM ATP; read-out: Percent inhibition relative to DMSO control, PI3K (p110α (H1047R)/p85α)
Description: as §1

[5] = molecular target: PI3Kg (p110γ) (Homo sapiens (Human), UniProt P48736); assay: Lipid kinase selectivity panel (Reaction Biology); assay type: biochemical; conditions: 1 μM compound, single dose duplicates, 10 μM ATP; read-out: Percent inhibition relative to DMSO control, PI3Kg (p110γ)
Description: as §1

[6] = molecular target: PI3K (p110α (E545K)/p85α) (Homo sapiens (Human), UniProt P42336, E545K); assay: Lipid kinase selectivity panel (Reaction Biology); assay type: biochemical; conditions: 1 μM compound, single dose duplicates, 10 μM ATP; read-out: Percent inhibition relative to DMSO control, PI3K (p110α (E545K)/p85α)
Description: as §1

[7] = molecular target: PI3K (p110α/p65α) (Homo sapiens (Human), UniProt P42336); assay: Lipid kinase selectivity panel (Reaction Biology); assay type: biochemical; conditions: 1 μM compound, single dose duplicates, 10 μM ATP; read-out: Percent inhibition relative to DMSO control, PI3K (p110α/p65α)
Description: as §1

[8] = molecular target: PI3Kd (p110δ/p85α) (Homo sapiens (Human), UniProt O00329); assay: Lipid kinase selectivity panel (Reaction Biology); assay type: biochemical; conditions: 1 μM compound, single dose duplicates, 10 μM ATP; read-out: Percent inhibition relative to DMSO control, PI3Kd (p110δ/p85α)
Description: as §1

[9] = molecular target: PI3Kα (p110α/p85α) (Homo sapiens (Human), UniProt P42336); assay: Lipid kinase selectivity panel (Reaction Biology); assay type: biochemical; conditions: 1 μM compound, single dose duplicates, 10 μM ATP; read-out: Percent inhibition relative to DMSO control, PI3Kα (p110α/p85α)
Description: as §1

[10] = molecular target: VPS34 (Homo sapiens (Human), UniProt Q8NEB9); assay: Biochemical Assay for VPS34 (ADP-Glo kinase activity assay); conditions: 25 nM VPS34, 1 mM ATP, 1-hour incubation at 37° C.; read-out: VPS34 (Inhibition of biochemical activity of VPS34, IC50)
Description: Activity of VPS34 kinase was determined using an ADP-Glo kinase activity assay (Promega Corp). Assays were conducted in 384-well plates (5 μL assay volume) using 25 nM VPS34 (ThermoFisher Scientific), […] PI:3PS Lipid Kinase Substrate (Promega Corp.), and 1 mM ATP in kinase buffer. Inhibition of VPS34 was measured by adding serial diluted test compound (final assay concentration of 0.1% DMSO) followed by a 1-hour incubation at 37° C. ADP-Glo reagent was then added ([…]) followed by a 40 min incubation at rt. Kinase detection reagent was then added ([…]) and followed by a 60 min incubation at rt. Luminescence was then detected. The RLU at each compound concentration of was converted to percent inhibition using controls (i.e., reaction with no test compound and reaction with a known inhibitor) and IC50 values were calculated by fitting a four-parameter sigmoidal curve to the data using GeneData Screener software.
VPS34 Protein Sequence (Full Length with GST Tag)

Chain of PI3KC2α (O00443 whole entry, species assumed): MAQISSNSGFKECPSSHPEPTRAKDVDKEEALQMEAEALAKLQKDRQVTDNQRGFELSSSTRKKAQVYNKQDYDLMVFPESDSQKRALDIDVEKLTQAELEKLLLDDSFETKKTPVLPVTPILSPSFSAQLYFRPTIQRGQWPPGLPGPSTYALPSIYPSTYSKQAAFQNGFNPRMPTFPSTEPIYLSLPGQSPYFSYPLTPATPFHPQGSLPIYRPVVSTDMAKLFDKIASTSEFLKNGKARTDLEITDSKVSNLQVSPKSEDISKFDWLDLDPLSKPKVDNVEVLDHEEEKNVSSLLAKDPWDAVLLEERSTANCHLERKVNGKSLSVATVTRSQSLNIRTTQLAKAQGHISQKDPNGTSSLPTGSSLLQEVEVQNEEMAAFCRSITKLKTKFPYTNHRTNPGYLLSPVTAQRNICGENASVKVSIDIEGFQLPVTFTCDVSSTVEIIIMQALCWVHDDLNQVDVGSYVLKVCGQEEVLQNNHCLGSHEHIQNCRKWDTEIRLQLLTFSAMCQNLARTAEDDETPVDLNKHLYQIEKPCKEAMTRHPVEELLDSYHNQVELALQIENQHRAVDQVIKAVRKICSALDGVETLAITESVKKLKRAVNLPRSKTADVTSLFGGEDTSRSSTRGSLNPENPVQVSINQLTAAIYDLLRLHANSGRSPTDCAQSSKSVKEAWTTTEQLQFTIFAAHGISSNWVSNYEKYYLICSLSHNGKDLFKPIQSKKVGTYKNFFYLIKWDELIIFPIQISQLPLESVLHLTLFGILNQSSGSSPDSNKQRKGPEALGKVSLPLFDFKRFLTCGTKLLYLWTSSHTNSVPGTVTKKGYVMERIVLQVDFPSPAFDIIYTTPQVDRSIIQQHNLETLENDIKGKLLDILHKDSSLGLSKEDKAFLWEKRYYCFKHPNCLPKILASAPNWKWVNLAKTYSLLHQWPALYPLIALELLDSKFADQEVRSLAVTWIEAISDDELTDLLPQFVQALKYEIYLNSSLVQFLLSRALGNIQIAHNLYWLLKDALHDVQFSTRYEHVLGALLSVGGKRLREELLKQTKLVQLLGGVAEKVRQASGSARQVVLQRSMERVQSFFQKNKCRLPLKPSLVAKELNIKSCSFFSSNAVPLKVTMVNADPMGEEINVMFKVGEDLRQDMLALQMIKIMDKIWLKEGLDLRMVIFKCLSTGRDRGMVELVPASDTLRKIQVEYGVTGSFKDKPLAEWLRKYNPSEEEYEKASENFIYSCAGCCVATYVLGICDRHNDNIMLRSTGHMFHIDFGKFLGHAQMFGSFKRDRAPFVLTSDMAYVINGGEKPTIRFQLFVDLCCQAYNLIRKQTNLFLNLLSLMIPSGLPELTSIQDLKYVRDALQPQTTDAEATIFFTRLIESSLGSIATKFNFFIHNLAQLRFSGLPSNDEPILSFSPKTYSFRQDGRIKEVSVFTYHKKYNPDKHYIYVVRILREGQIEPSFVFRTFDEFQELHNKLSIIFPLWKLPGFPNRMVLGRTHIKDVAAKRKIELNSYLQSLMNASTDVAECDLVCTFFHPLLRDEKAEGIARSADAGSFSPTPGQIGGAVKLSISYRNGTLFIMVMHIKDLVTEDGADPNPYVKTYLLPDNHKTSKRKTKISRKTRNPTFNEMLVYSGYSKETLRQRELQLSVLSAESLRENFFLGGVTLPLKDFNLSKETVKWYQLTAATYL
Chain of VPS34 (Q8NEB9 other isoform, or with tags, fused parts or gaps): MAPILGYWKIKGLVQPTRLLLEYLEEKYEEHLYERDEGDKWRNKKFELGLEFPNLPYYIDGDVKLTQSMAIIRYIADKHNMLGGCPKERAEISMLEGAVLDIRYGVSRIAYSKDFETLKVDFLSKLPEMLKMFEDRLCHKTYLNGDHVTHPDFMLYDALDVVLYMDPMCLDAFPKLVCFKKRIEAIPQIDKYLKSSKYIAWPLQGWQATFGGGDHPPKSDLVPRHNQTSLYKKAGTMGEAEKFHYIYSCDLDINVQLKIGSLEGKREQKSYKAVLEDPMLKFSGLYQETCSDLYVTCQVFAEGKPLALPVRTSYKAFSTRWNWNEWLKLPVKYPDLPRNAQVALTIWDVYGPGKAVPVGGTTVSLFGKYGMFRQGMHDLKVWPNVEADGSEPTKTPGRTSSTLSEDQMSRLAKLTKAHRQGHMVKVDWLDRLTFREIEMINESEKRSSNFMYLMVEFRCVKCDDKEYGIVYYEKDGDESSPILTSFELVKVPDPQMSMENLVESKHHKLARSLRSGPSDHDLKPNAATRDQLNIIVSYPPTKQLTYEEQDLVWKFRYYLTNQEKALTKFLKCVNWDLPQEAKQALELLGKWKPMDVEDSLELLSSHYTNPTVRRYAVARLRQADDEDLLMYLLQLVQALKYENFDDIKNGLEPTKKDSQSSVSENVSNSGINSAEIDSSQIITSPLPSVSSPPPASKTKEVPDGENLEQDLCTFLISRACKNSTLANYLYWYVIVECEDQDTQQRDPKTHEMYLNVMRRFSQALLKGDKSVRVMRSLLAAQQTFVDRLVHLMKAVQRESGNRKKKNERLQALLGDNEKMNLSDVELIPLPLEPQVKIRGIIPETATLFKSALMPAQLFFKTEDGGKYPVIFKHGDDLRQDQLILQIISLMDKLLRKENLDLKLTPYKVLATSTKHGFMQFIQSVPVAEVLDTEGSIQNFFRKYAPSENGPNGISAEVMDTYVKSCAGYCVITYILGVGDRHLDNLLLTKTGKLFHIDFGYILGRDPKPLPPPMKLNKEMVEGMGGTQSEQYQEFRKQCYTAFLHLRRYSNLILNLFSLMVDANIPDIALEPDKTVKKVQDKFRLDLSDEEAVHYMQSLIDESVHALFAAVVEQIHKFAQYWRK
Chain of PI3Kα (p110α/p85α) (P42336 whole entry, species assumed): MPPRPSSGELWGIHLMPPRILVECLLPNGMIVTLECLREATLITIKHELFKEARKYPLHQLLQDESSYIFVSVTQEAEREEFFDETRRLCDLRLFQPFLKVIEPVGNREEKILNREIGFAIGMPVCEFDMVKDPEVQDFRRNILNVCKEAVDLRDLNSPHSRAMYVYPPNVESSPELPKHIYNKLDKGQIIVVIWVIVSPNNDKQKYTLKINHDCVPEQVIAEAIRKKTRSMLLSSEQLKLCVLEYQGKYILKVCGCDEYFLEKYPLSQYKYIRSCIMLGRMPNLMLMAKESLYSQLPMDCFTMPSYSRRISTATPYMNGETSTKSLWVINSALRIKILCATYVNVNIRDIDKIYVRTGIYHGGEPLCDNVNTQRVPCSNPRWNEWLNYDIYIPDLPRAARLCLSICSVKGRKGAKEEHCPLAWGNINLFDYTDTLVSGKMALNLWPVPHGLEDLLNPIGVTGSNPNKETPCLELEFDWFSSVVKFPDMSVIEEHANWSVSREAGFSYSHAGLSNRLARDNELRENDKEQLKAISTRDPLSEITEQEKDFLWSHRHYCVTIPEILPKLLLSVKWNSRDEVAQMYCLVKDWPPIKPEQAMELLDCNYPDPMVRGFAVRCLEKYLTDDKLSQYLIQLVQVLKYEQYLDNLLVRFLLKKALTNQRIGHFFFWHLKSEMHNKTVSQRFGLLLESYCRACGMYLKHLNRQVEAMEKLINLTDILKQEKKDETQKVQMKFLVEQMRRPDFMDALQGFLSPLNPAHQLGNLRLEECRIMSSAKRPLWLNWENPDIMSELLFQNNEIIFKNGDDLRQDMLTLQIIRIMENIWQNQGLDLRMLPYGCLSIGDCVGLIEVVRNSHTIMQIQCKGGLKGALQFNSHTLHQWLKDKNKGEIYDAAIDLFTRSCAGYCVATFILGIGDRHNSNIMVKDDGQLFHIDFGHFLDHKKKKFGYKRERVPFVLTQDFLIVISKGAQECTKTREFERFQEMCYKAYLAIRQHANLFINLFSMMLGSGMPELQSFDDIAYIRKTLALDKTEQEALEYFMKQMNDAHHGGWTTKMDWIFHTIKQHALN
Chain of PI3Kα (p110α/p85α) (P27986 whole entry partner, species assumed): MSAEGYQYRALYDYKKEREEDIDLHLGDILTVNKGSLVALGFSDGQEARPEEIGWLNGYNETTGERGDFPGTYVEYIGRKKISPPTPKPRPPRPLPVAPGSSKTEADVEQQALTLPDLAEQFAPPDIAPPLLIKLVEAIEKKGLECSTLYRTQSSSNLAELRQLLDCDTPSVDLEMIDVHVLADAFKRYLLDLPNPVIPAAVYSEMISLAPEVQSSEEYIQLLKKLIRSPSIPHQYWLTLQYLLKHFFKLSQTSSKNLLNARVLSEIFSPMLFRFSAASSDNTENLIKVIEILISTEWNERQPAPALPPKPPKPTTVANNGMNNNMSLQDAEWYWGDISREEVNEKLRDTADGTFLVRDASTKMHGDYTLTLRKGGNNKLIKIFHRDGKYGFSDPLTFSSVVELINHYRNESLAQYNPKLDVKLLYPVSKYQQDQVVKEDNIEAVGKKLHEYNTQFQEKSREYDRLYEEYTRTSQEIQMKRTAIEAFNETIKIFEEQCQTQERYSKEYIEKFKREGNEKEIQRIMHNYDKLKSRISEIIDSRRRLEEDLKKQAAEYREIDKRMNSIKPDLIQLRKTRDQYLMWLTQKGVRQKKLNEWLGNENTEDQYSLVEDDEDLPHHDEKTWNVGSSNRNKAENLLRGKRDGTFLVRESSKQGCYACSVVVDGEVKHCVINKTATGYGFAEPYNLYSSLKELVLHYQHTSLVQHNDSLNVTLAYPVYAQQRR
Chain of PI3K (p110α/p65α) (P42336 whole entry, species assumed): as the sequence (P42336 whole entry, species assumed) above
Chain of PI3K (p110α (H1047R)/p85α) (P42336 whole entry H1047R): as the sequence (P42336 whole entry, species assumed) above, with H1047R counted along it
Chain of PI3K (p110α (H1047R)/p85α) (P27986 whole entry partner): as the sequence (P27986 whole entry partner, species assumed) above
Chain of PI3K (p110α (E542K)/p85α) (P42336 whole entry E542K): as the sequence (P42336 whole entry, species assumed) above, with E542K counted along it
Chain of PI3K (p110α (E542K)/p85α) (P27986 whole entry partner): as the sequence (P27986 whole entry partner, species assumed) above
Chain of PI3K (p110α (E545K)/p85α) (P42336 whole entry E545K): as the sequence (P42336 whole entry, species assumed) above, with E545K counted along it
Chain of PI3K (p110α (E545K)/p85α) (P27986 whole entry partner): as the sequence (P27986 whole entry partner, species assumed) above

## Cc1cnc(NC(=O)OC2CC3(CNC3)C2)cc1-c1cc(N2CCCC[C@@H]2C(F)(F)F)[nH]c(=O)c1 [Example 28]
[1]
  inhibition at 1 µM: -20%
[2]
  inhibition at 1 µM: 3%
[3]
  inhibition at 1 µM: 0%
[4]
  inhibition at 1 µM: -3%
[5]
  inhibition at 1 µM: -10%
[6]
  inhibition at 1 µM: -5%
[7]
  inhibition at 1 µM: -3%
[8]
  inhibition at 1 µM: 6%
[9]
  inhibition at 1 µM: -31%
[10]
  IC50: 100 to 500 nM

## Cc1nccc(Nc2cc(-c3cc(-c4cccnc4C(F)(F)F)[nH]c(=O)c3)c(C)cn2)n1 [Example 38]
[1]
  inhibition at 1 µM: 16%
[2]
  inhibition at 1 µM: 4%
[3]
  inhibition at 1 µM: 18%
[4]
  inhibition at 1 µM: 23%
[5]
  inhibition at 1 µM: 66%
[6]
  inhibition at 1 µM: 24%
[7]
  inhibition at 1 µM: 19%
[8]
  inhibition at 1 µM: 52%
[9]
  inhibition at 1 µM: 24%
[10]
  IC50: ≤ 100 nM

## Cc1nccc(Nc2cc(-c3cc(N4CCCC[C@@H]4C(F)(F)F)[nH]c(=O)c3)c(C)cn2)n1 [Example 77]
[1]
  inhibition at 1 µM: 33%
[2]
  inhibition at 1 µM: 2%
[3]
  inhibition at 1 µM: 11%
[4]
  inhibition at 1 µM: 22%
[5]
  inhibition at 1 µM: 65%
[6]
  inhibition at 1 µM: 28%
[7]
  inhibition at 1 µM: 24%
[8]
  inhibition at 1 µM: 17%
[9]
  inhibition at 1 µM: 30%
[10]
  IC50: ≤ 100 nM

## COC(=O)Nc1cc(-c2cc(-c3cccnc3C(F)(F)F)[nH]c(=O)c2)c(C)cn1 [Example 78]
[1]
  inhibition at 1 µM: 14%
[2]
  inhibition at 1 µM: -3%
[3]
  inhibition at 1 µM: 14%
[4]
  inhibition at 1 µM: 8%
[5]
  inhibition at 1 µM: 30%
[6]
  inhibition at 1 µM: 12%
[7]
  inhibition at 1 µM: 15%
[8]
  inhibition at 1 µM: 10%
[9]
  inhibition at 1 µM: 20%
[10]
  IC50: 100 to 500 nM
